In patent US10689363B2 (Merck Patent GmbH, priority 2017, dated 2020):
≈ marks a conversion by molar mass, not a printed value. Read-outs that look alike come from different tables or passages of the source.

Assays:
[1] = pH 6.5
[2] = Water Vapour Sorption isotherm (25° C., DVS-Intrinsic), hygroscopicity acc. to Ph. Eur. 5.11.; assay type: physicochemical; settings: for water uptake levels: 25° C.
Procedure: (§1) (based on multiple measurements on different samples of form A2). […] DSC scan of form A2 was acquired on a Mettler-Toledo DSC 821 with a heating rate of 50 K/min, using nitrogen purge gas at 50 mL/min. TGA scan of form A2 was acquired on a Mettler-Toledo TGA 851 with a heating rate of 5 K/min, using nitrogen purge gas at 50 mL/min. […] Eur. Criteria (section 5.11.). Water Vapour Sorption isotherm was acquired on a DVS-Intrinsic system from SMS.
(based on multiple measurements on different samples of form NF5). […] Eur. Criteria (section 5.11.). […] Water Vapour Sorption isotherm was acquired on a DVS-Intrinsic system from SMS.
(based on multiple measurements on one sample of form NF6). […] Eur. Criteria (section 5.11.). […] Water Vapour Sorption isotherm was acquired on a DVS-Intrinsic system from SMS.
Eur. Criteria (section 5.11.). […] Water Vapour Sorption isotherm was acquired on a DVS-Intrinsic system from SMS.
as §1, with “Other physical properties of” for “(based on multiple measurements on different samples of”, “form Fumarate-NF1 include the following: ^1H-NMR spectroscopic data reveal a API:Fumarate molar ratio of 1:1.” for “form A2).”, “form Fumarate-NF1” for “form A2”, “of 5” for “of 50”, “5.11.). […]” for “5.11.).”
Other physical properties of form Maleate-NF1 include the following: ^1H-NMR spectroscopic data reveal a API:Maleate molar ratio of 1:1. […] DSC scan of form Maleate-NF1 was acquired on a Mettler-Toledo DSC 821 with a heating rate of 5 K/min, using nitrogen purge gas at 50 mL/min. TGA scan of form Maleate-NF1 was acquired on a Mettler-Toledo TGA 851 with a heating rate of 5 K/min, using nitrogen purge gas at 50 mL/min. […] Form Maleate-NF1 can be classified as non-hygroscopic according to Ph. Eur. Criteria (section 5.11.). […] Water Vapour Sorption isotherm was acquired on a DVS-Intrinsic system from SMS.
Other physical properties of form Citrate-NF1 include the following: ^1H-NMR spectroscopic data reveal a API:Citrate molar ratio of 1:1. […] DSC scan of form Citrate-NF1 was acquired on a Mettler-Toledo DSC 821 with a heating rate of 5 K/min, using nitrogen purge gas at 50 mL/min. TGA scan of form Citrate-NF1 was acquired on a Mettler-Toledo TGA 851 with a heating rate of 5 K/min, using nitrogen purge gas at 50 mL/min. […] Eur. Criteria (section 5.11.). […] Water Vapour Sorption isotherm was acquired on a DVS-Intrinsic system from SMS.
(based on multiple measurements on different samples of form A1). […] DSC scan of form A1 was acquired on a Mettler-Toledo DSC 821 with a heating rate of 50 K/min, using nitrogen purge gas at 50 mL/min. TGA scan of form A1 was acquired on a Mettler-Toledo TGA 851 with a heating rate of 5 K/min, using nitrogen purge gas at 50 mL/min. […] Eur. Criteria (section 5.11.). […] Water Vapour Sorption isotherm was acquired on a DVS-Intrinsic system from SMS. […] Dissolution level of form A1 in Fasted-State Simulated Intestinal Fluid [FaSSIF, pH 6.5] at 37° C. was determined to be approx. 36 μg/mL (after 2 h), and dissolution level of form A1 in Fed-State Simulated Intestinal Fluid [FeSSIF, pH 5.0] at 37° C. was determined to be approx. 214 μg/mL (after 2 h), respectively (see example 11).
All forms were characterized according to standard methods which are found in e.g. Rolf Hilfiker, ‘Polymorphism in the Pharmaceutical Industry’. Wiley-VCH. Weinheim 2006 (Chapter 6: X-Ray Diffraction. Chapter 6: Vibrational Spectroscopy. Chapter 3: Thermal Analysis, Chapter 9: Water Vapour Sorption, and references therein); and H. G. Brittain, ‘Polymorphism in Pharmaceutical Solids. Vol. 95. Marcel Dekker Inc., New York 1999 (Chapter 6 and references therein).

[3] = Mini-dissolution in FaSSIF / FeSSIF medium at 37° C.; assay type: physicochemical; settings: for Dissolution levels in FaSSIF pH 6.5: FaSSIF pH 6.5, 37° C.; for Dissolution levels in FeSSIF pH 5.0: FeSSIF pH 5.0, 37° C.
Procedure: All dispersions were agitated at 37° C. for up to 2 hours. At defined time intervals (30 min. 60 min, 120 min), sample aliquots of homogeneous dispersions were withdrawn by a syringe, and filtrated via syringe filter adapters (PTFE, 0.45 μm).

[4] = Thermodynamic solubility (24 h, 37° C.) in FaSSIF medium or USP Phosphate buffer; assay type: physicochemical; settings: for Thermodynamic solubility FaSSIF pH 6.5 / Thermodynamic solubility PBS buffer 7.4 / solubility thermodynamic at 24 h: 24 h; for solubility thermodynamic at 24 h: 37 °C, thermodynamic from solid
[5] = relative humidity range 0-80% rh
[6] = relative humidity range 90-98% rh
[7] = 120 min (2 h), listed as form Malonate-NF1

## C=CC(=O)N1CCC(CNc2ncnc(N)c2-c2ccc(Oc3ccccc3)cc2)CC1 [form NF6, 1-(4-{[6-Amino-5-(4-phenoxy-phenyl)-pyrimidin-4-ylamino]-methyl}-piperidin-1-yl)-propenone]
[1]
  kinetic solubility levels (4 h), factor higher vs form A1: ~3
[2]
  hygroscopicity classification according to Ph. Eur. Criteria (section 5.11.): slightly hygroscopic
[2]; listed as NF6
  hygroscopicity classification according to Ph. Eur. Criteria (section 5.11.): Slightly hygroscopic
[2]; [5]
  water uptake levels: ≤ 2 wt %
[2]; [6]
  water uptake levels: ≤ 3 wt %

## C=CC(=O)N1CCC(CNc2ncnc(N)c2-c2ccc(Oc3ccccc3)cc2)CC1 [form NF5, 1-(4-{[6-Amino-5-(4-phenoxy-phenyl)-pyrimidin-4-ylamino]-methyl}-piperidin-1-yl)-propenone]
[1]
  kinetic solubility levels (4 h), factor higher vs form A1: ~1.5
[2]
  hygroscopicity classification according to Ph. Eur. Criteria (section 5.11.): slightly hygroscopic
[2]; listed as NF5
  hygroscopicity classification according to Ph. Eur. Criteria (section 5.11.): Slightly hygroscopic
[2]; relative humidity level of 98% rh
  water uptake levels: ≤ 2 wt %
[2]; relative humidity range 0-90% rh
  water uptake levels: ≤ 1 wt %

## C=CC(=O)N1CCC(CNc2ncnc(N)c2-c2ccc(Oc3ccccc3)cc2)CC1.O=C(O)CCC(=O)O [Malonate-NF1, 1-(4-{[6-Amino-5-(4-phenoxy-phenyl)-pyrimidin-4-ylamino]-methyl}-piperidin-1-yl)-propenone]
[3]; 30 min
  Dissolution levels in FaSSIF pH 6.5: 47 μg/mL
  Dissolution levels in FeSSIF pH 5.0: 651 μg/mL
[3]; 60 min
  Dissolution levels in FaSSIF pH 6.5: 53 μg/mL
  Dissolution levels in FeSSIF pH 5.0: 694 μg/mL
[3]; 120 min (2 h)
  Dissolution levels in FaSSIF pH 6.5: 75 μg/mL
  Dissolution levels in FeSSIF pH 5.0: 740 μg/mL
[3]; [7]
  Dissolution levels in FaSSIF pH 6.5: approx. 75 μg/mL
  Dissolution levels in FeSSIF pH 5.0: approx. 740 μg/mL
[3]; FaSSIF
  dissolution levels (2 h), factor higher vs form A1: ~2
[3]; FeSSIF
  dissolution levels (2 h), factor higher vs form A1: ~3.5
[2]
  hygroscopicity classification according to Ph. Eur. Criteria (section 5.11.): Slightly hygroscopic
[2]; listed as form Malonate-NF1
  hygroscopicity classification according to Ph. Eur. Criteria (section 5.11.): slightly hygroscopic
[2]; relative humidity range 0-80% rh, listed as form Malonate-NF1
  water uptake levels: < 0.5 wt %

## C=CC(=O)N1CCC(CNc2ncnc(N)c2-c2ccc(Oc3ccccc3)cc2)CC1 [form A1, 1-(4-{[6-Amino-5-(4-phenoxy-phenyl)-pyrimidin-4-ylamino]-methyl}-piperidin-1-yl)-propenone]
[3]; 30 min
  Dissolution levels in FaSSIF pH 6.5: 25 μg/mL
  Dissolution levels in FeSSIF pH 5.0: 190 μg/mL
[3]; 60 min
  Dissolution levels in FaSSIF pH 6.5: 33 μg/mL
  Dissolution levels in FeSSIF pH 5.0: 205 μg/mL
[3]; 120 min (2 h)
  Dissolution levels in FaSSIF pH 6.5: approx. 36 μg/mL
  Dissolution levels in FeSSIF pH 5.0: approx. 214 μg/mL
[3]; 120 min (2 h), listed as Free base form Al
  Dissolution levels in FaSSIF pH 6.5: 36 μg/mL
[3]; 120 min (2 h), listed as Free base form A1
  Dissolution levels in FeSSIF pH 5.0: 214 μg/mL
[4]; FaSSIF pH 6.5, 37° C.
  Thermodynamic solubility FaSSIF pH 6.5: approx. 21 μg/mL
[4]; FaSSIF pH 6.5, 37° C., listed as Free base form A1
  Thermodynamic solubility FaSSIF pH 6.5: 21 μg/mL
[4]; USP Phosphate buffer pH 7.4, 37° C.
  Thermodynamic solubility PBS buffer 7.4: approx. 14 μg/mL
[4]; USP Phosphate buffer pH 7.4, 37° C., listed as Free base form A1
  Thermodynamic solubility PBS buffer 7.4: 14 µg/mL
[2]
  hygroscopicity classification according to Ph. Eur. Criteria (section 5.11.): slightly hygroscopic
[2]; [5]
  water uptake levels: ≤ 1 wt %
[2]; [6]
  water uptake levels: ≤ 2 wt %

## C=CC(=O)N1CCC(CNc2ncnc(N)c2-c2ccc(Oc3ccccc3)cc2)CC1 [form A2, 1-(4-{[6-Amino-5-(4-phenoxy-phenyl)-pyrimidin-4-ylamino]-methyl}-piperidin-1-yl)-propenone]
[4]
  thermodynamic solubility compared to form A1 (in words): higher
[4]; FaSSIF
  thermodynamic solubility, factor higher vs form A1: ~1.5
[4]; FaSSIF medium, pH 6.5, fassif, FaSSIF pH 6.5, 37° C., read-out: Thermodynamic solubility FaSSIF pH 6.5
  solubility thermodynamic at 24 h: ~33 µg/mL (≈ 76.8 µM)
[4]; PBS buffer pH 7.4
  thermodynamic solubility, factor higher vs form A1: ~2
[4]; USP phosphate buffer, pH 7.4, aqueous buffer, USP Phosphate buffer pH 7.4, 37° C., read-out: Thermodynamic solubility PBS buffer 7.4
  solubility thermodynamic at 24 h: ~27 µg/mL (≈ 62.9 µM)
[2]
  hygroscopicity classification according to Ph. Eur. Criteria (section 5.11.): slightly hygroscopic
[2]; listed as A2
  hygroscopicity classification according to Ph. Eur. Criteria (section 5.11.): Slightly hygroscopic
[2]; relative humidity range 0-98% rh
  water uptake levels: ≤ 1 wt %
[2]; [6]
  water uptake levels: ≤ 2 wt %
